Results on ten compounds are retold here after patent US7553864B2, “Compounds for the treatment of inflammatory disorders and microbial diseases” (Schering Corporation, priority 2005, dated 2009).

The assay concerns LpxC enzyme. The experiment in a line: LpxC enzyme assay (RapidFire high-throughput mass spectrometry). In kind it is biochemical. A digest of the protocol:
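0.2 nM enzyme with 1.0 μM UDP-3-O-(R-3-hydroxymyristoyl)-N-acetylglucosamine in 25 mM HEPES pH 7.3, 150 mM NaCl, 2.0 mM DTT, 0.01% BSA, 2% DMSO; 60 min at room temperature, quenched with HCl. Substrate and product quantified by RapidFire mass spectrometry; percent conversion gives percent inhibition versus DMSO control.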

The mark [1] stands for this setting: concentration 0.10 (unit not given).
Setting [2] is: concentration 0.20 (unit not given).
[3] abbreviates: concentration 0.39 (unit not given).
Setting [4] is: concentration 0.78 (unit not given).
Where [5] appears, read: concentration 1.56 (unit not given).
[6] abbreviates: concentration 3.13 (unit not given).
The mark [7] stands for this setting: concentration 6.25 (unit not given).
Setting [8] is: concentration 12.50 (unit not given).
The mark [9] stands for this setting: concentration 25 (unit not given).
[10] abbreviates: concentration 50 (unit not given).

As for `CNC(=O)[C@H](O)[C@@H](O)C(=O)N1CCC(c2ccc3ccccc3c2)CC1` [Compound 36], the “LpxC enzyme assay rating (% inhibition at indicated concentrations)” value reads like this: under setting [1], “C (less than 10% inhibition)”; under setting [2], “C (less than 10% inhibition)”; under setting [3], “C (less than 10% inhibition)”; under setting [4], “C (less than 10% inhibition)”; under setting [5], “C (less than 10% inhibition)”; under setting [6], “C (less than 10% inhibition)”. Also, the “LpxC enzyme assay rating (% inhibition at indicated concentrations)” value is reported as “C (less than 10% inhibition)” under setting [7], “C (less than 10% inhibition)” under setting [8], “C (less than 10% inhibition)” under setting [9] and “C (less than 10% inhibition)” under setting [10].

On to `CN(C)C(=O)[C@H](O)[C@@H](O)C(=O)Nc1ccccc1C#Cc1ccccc1` [Compound 80], for which the “LpxC enzyme assay rating (% inhibition at indicated concentrations)” value was “C (less than 10% inhibition)” under setting [1]; “C (less than 10% inhibition)” under setting [2]; “C (less than 10% inhibition)” under setting [3]; “C (less than 10% inhibition)” under setting [4]; “C (less than 10% inhibition)” under setting [5]; “C (less than 10% inhibition)” under setting [6]. Further, the “LpxC enzyme assay rating (% inhibition at indicated concentrations)” value is, setting by setting: under setting [7], “C (less than 10% inhibition)”; under setting [8], “B (10-30% inhibition)”; under setting [9], “C (less than 10% inhibition)”.

Turning to `CN1CCN(c2ccc(NC(=O)[C@H](O)[C@@H](O)C(=O)N3CCCC3)cc2)CC1` [Compound 72], the “LpxC enzyme assay rating (% inhibition at indicated concentrations)” value under setting [1] is “B (10-30% inhibition)”; the “LpxC enzyme assay rating (% inhibition at indicated concentrations)” value under setting [2] is listed as “C (less than 10% inhibition)”; the “LpxC enzyme assay rating (% inhibition at indicated concentrations)” value under setting [3] was “C (less than 10% inhibition)”; the “LpxC enzyme assay rating (% inhibition at indicated concentrations)” value under setting [4] was “C (less than 10% inhibition)”; the “LpxC enzyme assay rating (% inhibition at indicated concentrations)” value under setting [5] is reported as “C (less than 10% inhibition)”; the “LpxC enzyme assay rating (% inhibition at indicated concentrations)” value under setting [6] is recorded as “C (less than 10% inhibition)”. Further, the “LpxC enzyme assay rating (% inhibition at indicated concentrations)” value under setting [7] was “C (less than 10% inhibition)”, the “LpxC enzyme assay rating (% inhibition at indicated concentrations)” value under setting [8] is “C (less than 10% inhibition)”, the “LpxC enzyme assay rating (% inhibition at indicated concentrations)” value under setting [9] is “C (less than 10% inhibition)” and the “LpxC enzyme assay rating (% inhibition at indicated concentrations)” value under setting [10] was “B (10-30% inhibition)”.

Consider `CCCCc1ccc(NC(=O)[C@H](O)[C@@H](O)C(=O)N2CCCC2)cc1` [Compound 66], for which the “LpxC enzyme assay rating (% inhibition at indicated concentrations)” value is “C (less than 10% inhibition)” under setting [1]; “C (less than 10% inhibition)” under setting [2]; “B (10-30% inhibition)” under setting [3]; “C (less than 10% inhibition)” under setting [4]; “B (10-30% inhibition)” under setting [5]; “B (10-30% inhibition)” under setting [6]. The “LpxC enzyme assay rating (% inhibition at indicated concentrations)” value is listed as “B (10-30% inhibition)” under setting [7], “B (10-30% inhibition)” under setting [8], “A (greater than 30% inhibition)” under setting [9] and “B (10-30% inhibition)” under setting [10].

On to `C[C@@H](O)[C@H](NC(=O)[C@H](O)[C@@H](O)C(=O)N(C)C)C(=O)Nc1ccc(C#Cc2ccccc2)cc1` [Compound 78], for which the “LpxC enzyme assay rating (% inhibition at indicated concentrations)” value runs as follows: under setting [1], “C (less than 10% inhibition)”; under setting [2], “C (less than 10% inhibition)”; under setting [3], “B (10-30% inhibition)”; under setting [4], “C (less than 10% inhibition)”; under setting [5], “C (less than 10% inhibition)”; under setting [6], “B (10-30% inhibition)”. The “LpxC enzyme assay rating (% inhibition at indicated concentrations)” value is reported as “B (10-30% inhibition)” under setting [7], “B (10-30% inhibition)” under setting [8] and “A (greater than 30% inhibition)” under setting [9].

Take `O=C(NCCCCl)[C@H](O)[C@@H](O)C(=O)Nc1ccc(C#Cc2ccccc2)cc1` [Compound 60]: the “LpxC enzyme assay rating (% inhibition at indicated concentrations)” value is reported as “C (less than 10% inhibition)” under setting [1]; “C (less than 10% inhibition)” under setting [2]; “B (10-30% inhibition)” under setting [3]; “B (10-30% inhibition)” under setting [4]; “C (less than 10% inhibition)” under setting [5]; “B (10-30% inhibition)” under setting [6]. The “LpxC enzyme assay rating (% inhibition at indicated concentrations)” value is listed as “B (10-30% inhibition)” under setting [7], “B (10-30% inhibition)” under setting [8], “C (less than 10% inhibition)” under setting [9] and “C (less than 10% inhibition)” under setting [10].

For `CN(C)C(=O)[C@H](O)[C@@H](O)C(=O)n1ccc2cc(C#Cc3ccccc3)ccc21` [Compound 44], the “LpxC enzyme assay rating (% inhibition at indicated concentrations)” value is, setting by setting: under setting [1], “C (less than 10% inhibition)”; under setting [2], “B (10-30% inhibition)”; under setting [3], “C (less than 10% inhibition)”; under setting [4], “C (less than 10% inhibition)”; under setting [5], “C (less than 10% inhibition)”; under setting [6], “B (10-30% inhibition)”. Also, the “LpxC enzyme assay rating (% inhibition at indicated concentrations)” value is, setting by setting: under setting [7], “B (10-30% inhibition)”; under setting [8], “A (greater than 30% inhibition)”; under setting [9], “A (greater than 30% inhibition)”; under setting [10], “A (greater than 30% inhibition)”.

Turning to `CNC(=O)[C@H](O)[C@@H](O)C(=O)Nc1ccc(-n2cccn2)cc1` [Compound 41], the “LpxC enzyme assay rating (% inhibition at indicated concentrations)” value is reported as “C (less than 10% inhibition)” under setting [1]; “C (less than 10% inhibition)” under setting [2]; “C (less than 10% inhibition)” under setting [3]; “C (less than 10% inhibition)” under setting [4]; “B (10-30% inhibition)” under setting [5]; “B (10-30% inhibition)” under setting [6]. For the same compound, the “LpxC enzyme assay rating (% inhibition at indicated concentrations)” value was “B (10-30% inhibition)” under setting [7], “C (less than 10% inhibition)” under setting [8], “B (10-30% inhibition)” under setting [9] and “B (10-30% inhibition)” under setting [10].

As to `CNC(=O)[C@H](O)[C@@H](O)C(=O)Nc1ccc(-c2ccc(C(F)(F)F)cc2)cc1` [Compound 28], the “LpxC enzyme assay rating (% inhibition at indicated concentrations)” value reads like this: under setting [1], “C (less than 10% inhibition)”; under setting [2], “C (less than 10% inhibition)”; under setting [3], “C (less than 10% inhibition)”; under setting [4], “C (less than 10% inhibition)”; under setting [5], “C (less than 10% inhibition)”; under setting [6], “C (less than 10% inhibition)”. The “LpxC enzyme assay rating (% inhibition at indicated concentrations)” value by setting is: under setting [7], “C (less than 10% inhibition)”; under setting [8], “B (10-30% inhibition)”; under setting [9], “C (less than 10% inhibition)”; under setting [10], “C (less than 10% inhibition)”.

Turning to `CN(C)C(=O)[C@H](O)[C@@H](O)C(=O)Nc1ccc(-c2ccccc2)cc1` [Compound 45], the “LpxC enzyme assay rating (% inhibition at indicated concentrations)” value by setting is: under setting [1], “C (less than 10% inhibition)”; under setting [2], “C (less than 10% inhibition)”; under setting [3], “C (less than 10% inhibition)”; under setting [4], “C (less than 10% inhibition)”; under setting [5], “C (less than 10% inhibition)”; under setting [6], “C (less than 10% inhibition)”. Besides, the “LpxC enzyme assay rating (% inhibition at indicated concentrations)” value runs as follows: under setting [7], “C (less than 10% inhibition)”; under setting [8], “C (less than 10% inhibition)”; under setting [9], “C (less than 10% inhibition)”; under setting [10], “C (less than 10% inhibition)”.
